From patent US20220280594A1, “APPLICATION OF POLYPEPTIDE OR DERIVATIVE THEREOF” (CHENGDU HUITAI BIOMEDICINE CO., LTD., priority 2019, published 2022)
Ends that are not written are not given here. PEG = not defined here

Legend:
[1] = tested on: human lung squamous carcinoma cells (NCI-H226); assay: scratch assay, migration of NCI-H226 cells; format: cell-based; conditions: NCI-H226, 10 μM, 48 hours; control group 65.31 ± 3.19
Description: (§1) In the scratch assay, the cell migration rate was negatively correlated with the inhibitory effect of the drug component on tumor cell migration ability. The cell migration inhibition experiment was described as follows: tumor cells were cultured in vitro, cells in logarithmic growth phase were collected and seeded evenly in a 24-well plate at a density of 1-2×10^5 cells/well; the cells were cultured in a cell incubator until a monolayer was formed; a scratch tool was used to make a “-” (straight) scratch on the monolayer of cells; the cells were washed 1-3 times with PBS, and a medium (with 2% fetal bovine serum) containing specific test components was added to the culture. Experimental grouping: PBS control group; polypeptide or derivative thereof treatment group (N1-N54), 10 μM. Three independent parallel wells were set up in each group, and the cells were cultured continuously in a cell incubator for 48 hours. […] At least 3 representative images for each well were taken. ImageJ software was used to count the migration distance of the cells, and the cell migration rate was calculated as: cell migration rate (%)=(width of original scratch−width of current scratch)/width of original scratch×100.
This example was a scratch assay to evaluate the inhibitory effect of the polypeptide or derivative thereof (N1-N54) on the migration ability of human lung squamous carcinoma cells (NCI-H226). The experimental method was as described in Example 2.

[2] = tested on: human pancreatic cancer cells (PANC-1); assay: transwell migration assay, PANC-1 cells; format: cell-based; conditions: PANC-1 transwell migration, 10 μM, 24 hours; control group 360 ± 60
Description: The Transwell chamber system was used in the transwell cell migration experiment. The chamber has an upper layer and a lower layer, which are separated by an artificial semipermeable membrane in the middle. Cells that have migrated through the semi-permeable membrane will attach to the lower surface of the semi-permeable membrane. The migration ability is evaluated by counting the number of cells on the lower surface of the semi-permeable membrane. The number of cells that have migrated is negatively correlated with the inhibitory effect of the drug on the migration ability of the tumor cells. Transwell migration assay was performed as follows: tumor cells were cultured in vitro, cells in logarithmic growth phase were collected, and cell suspension was prepared with fresh serum-free medium at a density of 2-3×10^5 cells/mL. Cells were inoculated, 100 μL/well cell suspension (serum-free medium) in the upper chamber and 600 μL/well complete culture medium in the lower chamber. After incubated in 37° C., 5% CO2 incubator for 4-5 hours, serum-free medium (100 μL/well) was added to the control group, and serum-free medium containing polypeptide or derivative thereof (N1-N54) was added to the upper chamber of the treatment group (100 μL/well), the final concentration of the peptide or derivative thereof in the upper chamber was 10 μM. The cells were incubated continuously for 24 hours, and then fixed with methanol and stained with crystal violet. Images were taken under a microscope and the number of migrated cells was counted with ImageJ.
This example was a transwell cell migration experiment to evaluate the inhibitory effect of the polypeptide or derivative thereof (N1-N54) on the migration ability of human pancreatic cancer cells (PANC-1). The experimental method was as described in Example 3.

[3] = tested on: human thyroid cancer cells (FRO); assay: scratch assay, migration of FRO cells; format: cell-based; conditions: 10 μM, 48 hours, control group 60.34 ± 8.32
Description: as §1
This example was a scratch assay to evaluate the inhibitory effect of the polypeptide or derivative thereof (N1-N54) on the migration ability of human thyroid cancer cells (FRO). The experimental method was as described in Example 2.

[4] = tested on: human lung cancer cells (A549) subcutaneous xenograft; assay: lung cancer subcutaneous xenograft animal model, intravenous injection; format: in vivo, mice (BALB/c-nu/nu); conditions: intravenous 60 mg/kg once every other day, 20 days; for Weight of tumor (g) (mean ± SD): control 2.53 ± 0.17; for Volume of tumor (mm^3) (mean ± SD): control 3373.26 ± 581.44
Description: Experimental animals: 4-6 weeks old female immunodeficiency mice (BALB/c-nu/nu, Beijing Vital River Laboratory Animal Technology Co., Ltd.).
Subcutaneous xenograft animal model. The number of cells inoculated subcutaneously vin mice was about 2×10^6/200 μL. When the volume of the subcutaneous tumor was greater than 100 mm^3, the mice were randomly divided into groups and subjected to treatment. When the mass volume of the tumors in model control group reached 2000 mm^3 or the animal dies, the treatment ended. The animals were dissected, the tumors were taken out, and the weight and volume of the tumors were measured. During the period of the entire experiment, the mice were observed and the body weight was measured every other day.
The method used in the efficacy test on the lung cancer subcutaneous xenograft animal model was as described in Example 5. The lung cancer cells were the human lung cancer cells (A549), and the route of administration was intravenous injection. This example involved a total of 3 experiments to evaluate N1-N15, N16-N30, and N31-N54 respectively. The experimental procedure, route of administration, dosage and frequency of administration, and detection method were all consistent in the three experiments. The experimental groups were model control group and polypeptide or derivative thereof treatment groups (N1-N15, N16-N30, or N31-N54). The drug dosage of the N1-N54 treatment groups was 60 mg/kg, and the treatment time was 20 days.

[5] = tested on: human lung cancer cells (95D); assay: scratch assay, migration of 95D cells; format: cell-based; conditions: 10 μM, 48 hours, control group 55.3 ± 3.19
Description: as §1
This example was a scratch assay to evaluate the inhibitory effect of the polypeptide or derivative thereof (N1-N54) on the migration ability of human lung cancer cells (95D). The experimental method was as described in Example 2.

[6] = tested on: human pancreatic cancer cells (PANC-1); assay: transwell invasion assay, PANC-1 cells; format: cell-based; conditions: PANC-1 transwell invasion, 10 μM, 24 hours; control group 727 ± 68
Source text: The Transwell chamber system was used in the transwell cell invasion experiment. The chamber has an upper layer and a lower layer, which are separated by an artificial semipermeable membrane in the middle. The upper surface of the semipermeable membrane is coated with a layer of artificial matrigel to simulate extracellular matrix. Cells that have invaded through the matrigel and semi-permeable membrane will attach to the lower surface of the semi-permeable membrane. The invasion ability is evaluated by counting the number of cells on the lower surface of the semi-permeable membrane. The number of cells that have invaded is negatively correlated with the inhibitory effect of the drug on the invasion ability of the tumor cells. Transwell invasion assay was performed as follows: tumor cells were cultured in vitro, cells in logarithmic growth phase were collected, and cell suspension was prepared with fresh serum-free medium at a density of 2-3×10^5 cells/mL. Cells were inoculated, 100 μL/well cell suspension (serum-free medium) in the upper chamber and 600 μL/well complete culture medium in the lower chamber. After incubated in 37° C., 5% CO2 incubator for 4-5 hours, serum-free medium (100 μL/well) was added to the control group, and serum-free medium containing polypeptide or derivative thereof (N1-N54) was added to the upper chamber of the treatment group (100 μL/well), the final concentration of the peptide or derivative thereof in the upper chamber was 10 μM. The cells were incubated continuously for 24 hours, and then fixed with methanol and stained with crystal violet. Images were taken under a microscope and the number of invaded cells was counted with ImageJ.
This example was the transwell cell invasion experiment to evaluate the inhibitory effect of the polypeptide or derivative thereof (N1-N54) on the invasion ability of human pancreatic cancer cells (PANC-1). The experimental method was as described in Example 4.

| Substance | Migration rate (%) (mean ± SD, P) [1] | Number of cells (mean ± SD, P), migrated cells [2] | Migration rate (%) (mean ± SD, P) [3] | Weight of tumor (g) (mean ± SD) [4] | Volume of tumor (mm^3) (mean ± SD) [4] | Migration rate (%) (mean ± SD, P) [5] | Number of cells (mean ± SD, P), invaded cells [6] |
| --- | --- | --- | --- | --- | --- | --- | --- |
| N1: polypeptide with the amino acid sequence set forth in SEQ ID NO: 1 (YRVRFLAKENVTQDAEDN) | 12.68 ± 9.07,*** % | 245 ± 27,* | 7.45 ± 2.78,*** % | 1.01 ± 0.2 | 1340.25 ± 319.59 | 27.31 ± 4.35,** % | 83 ± 26,**** |
| N2: SEQ ID NO: 1 with deletion of one amino acid (position 18) at the carboxyl terminal (YRVRFLAKENVTQDAED) | 12.42 ± 8.44,*** % | 221 ± 35,** | 22.88 ± 5.43,** % | 0.6 ± 0.28 | 1297.28 ± 359.77 | 36.44 ± 4.16,** % | 93 ± 19,**** |
| N3: SEQ ID NO: 1 with deletion of position 18 and PEG modification at the amino terminal ({PEG}-YRVRFLAKENVTQDAED; reading uncertain) | 16.38 ± 6.85,*** % | 224 ± 28,** | 3.51 ± 1.34,*** % | 0.56 ± 0.16 | 1511.56 ± 433.12 | 30.19 ± 5.91,** % | 111 ± 10,**** |
| N4: SEQ ID NO: 1 with deletion of positions 15-18 and positions 1-3 (RFLAKENVTQD) | 10.00 ± 10.27,** % | 268 ± 20,* | 11.34 ± 2.73,*** % | 0.56 ± 0.19 | 1515.07 ± 507.99 | 31.65 ± 3.82,** % | 37 ± 4,**** |
| N5: SEQ ID NO: 1 with addition of one amino acid at the carboxyl terminal and deletion of positions 1-3 (RFLAKENVTQDAEDNC) | 10.65 ± 9.94,*** % | 234 ± 27,* | 4.71 ± 1.90,*** % | 0.71 ± 0.12 | 1353.09 ± 422.65 | 28.27 ± 5.00,** % | 109 ± 7,**** |
| N6: SEQ ID NO: 1 with deletion of four amino acids at the carboxyl terminal (positions 15-18) (YRVRFLAKENVTQD) | 19.72 ± 8.97,** % | 144 ± 12,*** | 3.24 ± 1.80,*** % | 0.88 ± 0.19 | 1361.03 ± 248.72 | 39.20 ± 4.24,** % | 110 ± 5,**** |
| N7: SEQ ID NO: 1 with addition of one amino acid at the carboxyl terminal and substitution A15R (YRVRFLAKENVTQDREDNC) | 18.83 ± 4.53,*** % | 132 ± 15,*** | 5.73 ± 2.04,*** % | 0.81 ± 0.15 | 1189.39 ± 200.83 | 35.72 ± 3.68,** % | 70 ± 17,**** |
| N8: SEQ ID NO: 1 with deletion of positions 15-18 and positions 3, 4 and 11 (YRFLAKENTQD) | 20.29 ± 4.29,*** % | 133 ± 20,*** | 7.28 ± 2.89,*** % | 1.02 ± 0.21 | 1359.06 ± 275.17 | 35.13 ± 4.45,** % | 65 ± 16,**** |
| N9: SEQ ID NO: 1 with deletion of positions 15-18 and PEG modification at the amino terminal ({PEG}-YRVRFLAKENVTQD; reading uncertain) | 35.47 ± 5.20,** % | 148 ± 16,*** | 20.51 ± 5.04,** % | 0.82 ± 0.29 | 1241.9 ± 388.92 | 32.27 ± 4.69,** % | 93 ± 6,**** |
| N10: SEQ ID NO: 1 with deletion of positions 15-18 and 1-3 and PEG modification at the carboxyl terminal (RFLAKENVTQD-{PEG}; reading uncertain) | 17.75 ± 5.87,*** % | 254 ± 20,* | 14.14 ± 3.64,*** % | 0.86 ± 0.17 | 1211.62 ± 670.09 | 34.35 ± 5.74,** % | 159 ± 12,**** |
